Assay results from patent publication US20210247385A1, “METHODS FOR ASSESSING TRANSENDOTHELIAL BARRIER INTEGRITY” (Hoffmann-La Roche Inc., priority 2018, published 2021).

Legend:
hPSC-ECs (GFP+ cells) = assay: Electric cell-substrate impedance sensing (ECIS) of transendothelial barrier integrity; assay type: cell-based, human; settings: for effect on EC barrier in co-application with VEGFA (functional barrier assays): under both conditions, FIG. 5
Experimental: Electric cell-substrate impedance sensing. TBI was detected in real time using the ECIS® Z-theta system (Applied Biophysics, McAlister G C, Nusinow D P, Jedrychowski M P, Wuhr M, Huttlin E L, Erickson B K, et al. Analytical chemistry. 2014; 86(14):7150-8.) using 96 well array plates (96widf, Applied Biophysics) at 250 Hz frequency. Plates were coated with 100 μL of fibronectin (25 μg/mL; for 30 min at RT), fibronectin was replaced by complete media and electrodes were stabilized for 1 h on the system. Afterwards, media was removed and hPSC-ECs were seeded (10,000 cells per well). Cells were left for 2 days to reach full confluency and then treated with compounds with or without VEGFA (50 ng/mL). All the treatments were performed in triplicates.

TGFBR2 [1] = molecular target: T1, TGFBR2 (Homo sapiens, UniProt P37173); assay: Kinome scan (scanMAX, competitive protein kinase binding) TGFBR2; settings: 1 μM; data not shown
T1 construct: purchased DiscoveRx
T1 sequence (P37173 23-567): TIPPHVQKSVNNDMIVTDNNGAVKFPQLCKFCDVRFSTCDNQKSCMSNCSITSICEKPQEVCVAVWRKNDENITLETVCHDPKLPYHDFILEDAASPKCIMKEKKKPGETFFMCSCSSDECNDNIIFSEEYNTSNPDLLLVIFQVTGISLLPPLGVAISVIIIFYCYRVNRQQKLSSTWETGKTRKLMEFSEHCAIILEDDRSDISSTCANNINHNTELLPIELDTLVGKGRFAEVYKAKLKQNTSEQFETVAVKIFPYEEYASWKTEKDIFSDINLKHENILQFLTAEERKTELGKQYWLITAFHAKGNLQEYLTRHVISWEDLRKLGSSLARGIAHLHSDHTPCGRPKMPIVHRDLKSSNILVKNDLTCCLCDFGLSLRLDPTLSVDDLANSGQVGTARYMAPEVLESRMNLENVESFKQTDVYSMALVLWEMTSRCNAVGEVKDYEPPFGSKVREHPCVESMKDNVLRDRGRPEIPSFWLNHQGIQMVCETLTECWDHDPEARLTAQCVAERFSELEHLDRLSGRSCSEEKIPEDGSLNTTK
Experimental: (§1) Competitive protein kinase binding assays. Kinome scan (468 kinases) was performed by scanMAX (DiscoveRx) at 1 μM. Kinome scan procedure has been followed as described in (Bemas M J, Cardoso F L, Daley S K, Weinand M E, Campos A R, Ferreira A J, et al. Nature protocols. 2010; 5(7):1265-72.). Kd determination for ACVR1B, TGFRB1, TGFBR2 and KDR has been done in duplicates with 11-point 3-fold serial dilution starting from 30 μM (DiscoveRx). All the compounds were dissolved in DMSO. Binding constants (Kds) were calculated with a standard dose-response curve using the Hill equation and the The Hill Slope was set to −1. Curves were fitted using a non-linear least square fit with the Levenberg-Marquardt algorithm.

BMPR1B = molecular target: T2, BMPR1B (Homo sapiens, UniProt O00238); assay: Kinome scan (scanMAX, competitive protein kinase binding) BMPR1B; settings: 1 μM; data not shown
T2 construct: purchased DiscoveRx
T2 sequence (O00238 14-502): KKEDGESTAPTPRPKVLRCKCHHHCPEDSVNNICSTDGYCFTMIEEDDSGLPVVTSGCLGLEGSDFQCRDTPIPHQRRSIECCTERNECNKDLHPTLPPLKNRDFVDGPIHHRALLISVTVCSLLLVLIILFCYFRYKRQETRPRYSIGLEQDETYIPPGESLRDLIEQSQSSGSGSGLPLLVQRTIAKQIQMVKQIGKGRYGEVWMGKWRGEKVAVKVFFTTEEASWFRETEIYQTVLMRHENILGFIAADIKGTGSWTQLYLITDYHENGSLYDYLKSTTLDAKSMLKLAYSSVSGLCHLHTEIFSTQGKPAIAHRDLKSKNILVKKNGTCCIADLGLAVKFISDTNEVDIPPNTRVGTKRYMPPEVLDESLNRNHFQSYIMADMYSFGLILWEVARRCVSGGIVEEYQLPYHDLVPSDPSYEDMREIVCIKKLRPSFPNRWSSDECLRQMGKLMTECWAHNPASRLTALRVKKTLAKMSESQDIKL
Experimental: as §1

TGFBR2 [2] = molecular target: T1, TGFBR2; assay: Kd determination (DiscoveRx) TGFBR2; assay type: binding; settings: data not shown
Experimental: as §1

[3] = test system: CLDN5 transcriptional reporter (CLDN5-P2A-GFP) in hPSC-EC; assay: CLDN5-GFP reporter, percentage of GFP+ cells by FACS; assay type: cell-based, human
Experimental: Fluorescence activated cell sorting and analysis. Human PSC-EC were dissociated from plates by Accutase (StemCell Technologies) and filtered before sorting with 30 μm filters (Miltenyi Biotec). Dissociated cells were kept in full media during sorting and sorted in cooled collection tubes with complete EC media supplemented with 20% FBS and 25 mM HEPES. Sorting was performed with BD FACS ARIA III (BD Biosciences) using 4-way purity precision mode. FACS plots were generated by Flowjo_V10 software. In case of RNA-seq minimum of 100,000 cells was sorted. After sorting, cells were spun down (610 g, 10 min) and lysed in 650 μL RLT lysis buffer (Qiagen)+β-mercaptoethanol (1%) and subsequently vortexed for 1 min at room temperature and snap frozen. In case of mass spectrometry analysis minimum of 10^6 cells was sorted, cells were washed with PBS^−(Life Technologies), spun down (110 g, 3 min), PBS was removed and cell pellets snap frozen.
Compound library screening with fluorescence activated cell readout. Compounds were plated in replicate plates, and each plate had DMSO treated controls. ECs (10,000 cells per well) were seeded on fibronectin coated plates in full media. Cells were treated 2 days after seeding and the FACS measurement using MACS quant analyzer 10 (Miltenyi biotec) was performed. Screen data was analyzed in Flowjo_V10 software.

hPSC-EC = test system: hPSC-EC
Experimental: RNA isolation. RNA isolation from FACS sorted or cultured cells was performed using RNeasy micro kit or RNeasy mini kit (both Qiagen) or automated Maxwell Total RNA purification kit (Promega), all procedures included DNAse I digestion. Procedures were followed as described in the kit protocols.
RNA-sequencing and analysis. Total RNA from the FACS sorted or cell cultured treated samples was subjected to oligo (dT) capture and enrichment, and the resulting mRNA fraction was used to construct complementary DNA libraries. Transcriptome sequencing (RNA-seq) was performed on the Illumina HiSeq platform using the standard protocol (TruSeq Stranded Total RNA Library, Illumina) that generated approximately 30 million reads of 50 base-pair per sample. FACS sorted experiments for GFP+ and GFP− cells were performed using 6 replicates each from 2 different clones. The RNA-seq reads were then mapped to the human genome (NCBI build 37) by using GSNAP (Wu T D, Nacu S. Bioinformatics (Oxford, England). 2010; 26(7):873-81.). Comparison was done between 12 samples of GFP+ and GFP− samples from two clones. TGFBR2 inhibitor treated hPSC-EC samples were mapped to the human genome (hg19/Refseq) using STAR (Dobin A, Davis Calif., Schlesinger F, Drenkow J, Zaleski C, Jha S, et al. Bioinformatics (Oxford, England). 2013; 29(1):15-21.) and counting was performed using union mode of HtSeq (Anders S, Pyl P T, Huber W. Bioinformatics (Oxford, England). 2015; 31(2):166-9.). Differential expression was performed using Deseq2 (Dobin A, Davis C A, Schlesinger F, Drenkow J, Zaleski C, Jha S, et al. Bioinformatics (Oxford, England). 2013; 29(1):15-21.). Gene set enrichment analysis was performed using GSEA (Subramanian A, Tamayo P, Mootha V K, Mukherjee S, Ebert B L, Gillette M A, et al. Proceedings of the National Academy of Sciences of the United States of America. 2005; 102(43):15545-50.) using Hallmarks MsigDb database (Liberzon A, Birger C, Thorvaldsdottir H, Ghandi M, Mesirov J P, Tamayo P. Cell systems. 2015; 1(6):417-25.) using weighted p2 analysis, following default conditions with ignoring gene sets smaller than 15 and larger than 5000 genes.

[4] = RNA-seq 8 h and 48 h after treatment

Cc1cccc(-c2[nH]c(C(C)(C)C)nc2-c2ccc3c(c2)OCO3)n1 [SB505124]
effect on EC barrier in co-application with VEGFA (functional barrier assays) (hPSC-ECs (GFP+ cells); VEGFA 50 ng/mL): partial effect

O=C(NC1CCOCC1)c1ccc(-c2cc(-c3c[nH]nc3-c3ccccn3)ccn2)cc1 [GW788388, 4-[4-[3-(2-Pyridinyl)-1H-pyrazol-4-yl]-2-pyridinyl]-N-(tetrahydro-2H-pyran-4-yl)-benzamide]
inhibitory activity on TGFBR2, large kinase panel (TGFBR2 [1]): strong inhibitory activity | inhibition activity on BMPR1B, large kinase panel (BMPR1B): weaker inhibition activity | effect on EC barrier in co-application with VEGFA (functional barrier assays) (hPSC-ECs (GFP+ cells); VEGFA 50 ng/mL): prevented barrier disruption with VEGFA | Kd (inhibitory activities) for TGFBR2 (TGFBR2 [2]): nanomolar inhibitory activities

CCN(CC)CCNC(=O)c1c(C)[nH]c(/C=C2\C(=O)Nc3ccc(F)cc32)c1C [SU11248]
% of GFP+ cells ([3]; 5 μM SU11248 for 2 days, FACS): 99% | change in GFP+ (reporter gene positive) cells upon treatment ([3]; FACS 2 days after treatment, VEGFA 50 ng/mL): increase of reporter gene positive cells | resistance to barrier breakdown by VEGFA, ECIS (hPSC-ECs (GFP+ cells); cells treated with 5 μM SU11248, VEGFA 50 ng/mL): resistant to barrier breakdown by VEGFA

NC(=O)c1ccc(-c2nc(-c3ccc4c(c3)OCO4)c(-c3ccccn3)[nH]2)cc1 [SB431542, 4-(4-Benzo[1,3]dioxol-5-yl-5-pyridin-2-yl-1H-imidazol-2-yl)-benzamide]
effect on EC barrier in co-application with VEGFA (functional barrier assays) (hPSC-ECs (GFP+ cells); VEGFA 50 ng/mL): no effect

Cc1cccc(-c2n[nH]cc2-c2ccc3ncccc3n2)n1 [Repsox, 2-[3-(6-Methyl-2-pyridinyl)-1H-pyrazol-4-yl]-1,5-naphthyridine]
inhibitory activity on TGFBR2, large kinase panel (TGFBR2 [1]): strong inhibitory activity | BMP signaling (ENG, LRG1 and BMPR2) (hPSC-EC; [4]): potently inhibited | CLDN5 expression (hPSC-EC; [4]): strong upregulation | GSK3ß expression (hPSC-EC; [4]): downregulation | PLVAP expression (hPSC-EC; [4]): downregulation | RHOB expression (hPSC-EC; [4]): Downregulation | SMAD6 (TGFß antagonist) expression (hPSC-EC; [4]): inducing | expression of KDR (VEGFR2) and PECAM1 (CD31) (hPSC-EC; [4]): did not change | expression of Wnt target genes (AXIN2, APCDD1, TNFRSF19) and receptors for Wnt FZD4 and LRP1 (hPSC-EC; [4]): upregulation | expression of antagonists of BMP signaling (BMPER, GREM2 and GDF6) (hPSC-EC; [4]): Most striking upregulation | expression of inflammation genes (NFATC2, JAK1, JAK3 and ICAM1) (hPSC-EC; [4]): downregulate | expression of other tight junctions or regulators of tight junctions (MARVELD3, GJA4, GJA5, IFITM3) (hPSC-EC; [4]): Upregulation | TGFß pathway regulation (hPSC-EC; RNA-seq / GSEA Hallmarks MsigDB): most potent compound | expression of SOX17 and KLF4 (hPSC-EC; RNA-seq after treatment): Induction | VEGFR1 (FLT1) expression (hPSC-EC; RNA-seq, data not shown): upregulated | expression of angiogenesis related genes (ESM1, ANGPTL4 and PPARGC1A) (hPSC-EC; RNA-seq, data not shown): most potent compound in downregulating | inhibition activity on BMPR1B, large kinase panel (BMPR1B): weaker inhibition activity | rescue of TBI, impedance real time measurement (hPSC-ECs (GFP+ cells); 10 μM, co-treatment with 50 ng/mL VEGFA, GFP+ cells): rescues the loss-of TBI induced by VEGFA treatment | effect on EC barrier in co-application with VEGFA (functional barrier assays) (hPSC-ECs (GFP+ cells); VEGFA 50 ng/mL): strong EC barrier promoting effect | Kd (inhibitory activities) for TGFBR2 (TGFBR2 [2]): nanomolar inhibitory activities
